Reference: patent US8741897B2, “Glucocorticoid mimetics, methods of making them, pharmaceutical compositions and uses thereof” (Boehringer Ingelheim Pharmaceuticals Inc., priority 2003, dated 2014)

What was measured:
[1] = target: T1, human glucocorticoid receptor (GR) complex (Homo sapiens, UniProt P04150); assay: Glucocorticoid receptor competitive binding assay (fluorescence polarization, TAMRA-labeled dexamethasone probe); conditions: compounds of Formula (IA)
T1 construct: made in house; host or cells: insect expression system (baculovirus lysate)
T1 sequence (P04150 1-777): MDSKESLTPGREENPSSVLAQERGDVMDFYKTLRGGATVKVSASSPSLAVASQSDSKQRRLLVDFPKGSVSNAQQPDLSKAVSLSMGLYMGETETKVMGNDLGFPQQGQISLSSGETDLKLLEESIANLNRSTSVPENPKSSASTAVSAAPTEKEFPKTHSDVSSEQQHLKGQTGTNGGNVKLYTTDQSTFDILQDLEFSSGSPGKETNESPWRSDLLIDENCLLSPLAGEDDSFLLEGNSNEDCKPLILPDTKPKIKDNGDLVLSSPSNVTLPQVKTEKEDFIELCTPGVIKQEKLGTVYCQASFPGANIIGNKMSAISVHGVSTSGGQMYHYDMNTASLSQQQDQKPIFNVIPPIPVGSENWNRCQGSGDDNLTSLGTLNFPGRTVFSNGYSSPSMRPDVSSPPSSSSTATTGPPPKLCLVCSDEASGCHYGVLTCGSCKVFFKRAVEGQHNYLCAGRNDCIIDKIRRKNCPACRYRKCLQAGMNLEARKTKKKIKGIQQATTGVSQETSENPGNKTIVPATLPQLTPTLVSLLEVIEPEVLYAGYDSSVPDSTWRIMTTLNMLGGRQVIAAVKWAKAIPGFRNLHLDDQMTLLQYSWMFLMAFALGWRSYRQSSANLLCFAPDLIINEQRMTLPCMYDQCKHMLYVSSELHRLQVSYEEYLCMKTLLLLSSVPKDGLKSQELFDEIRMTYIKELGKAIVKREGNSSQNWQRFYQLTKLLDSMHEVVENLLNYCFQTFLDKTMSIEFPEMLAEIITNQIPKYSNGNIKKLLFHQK
How it was run: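 Fluorescence-polarization competition against 15 nM TAMRA-dexamethasone (stock added to the mix) for human GR complex from baculovirus lysate diluted 1:170. Buffer: 10 mM TES, 50 mM KCl, 20 mM Na2MoO4, 1.5 mM EDTA, 0.04% CHAPS, 10% glycerol, 1 mM DTT, pH 7.4. IC50 from 4-parameter logistic fit.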

[2] = test system: glucocorticoid receptor function; assay: one or more of the above assays (GR binding and glucocorticoid receptor cell assays: aromatase, IL-6, TAT, MMTV-Luc, IL-8, ICAM-Luc); type: cell-based; conditions: assay not specified per compound
[3] = test system: Human osteosarcoma MG-63 cells; assay: Inhibition of osteocalcin production from osteoblast cell line MG-63; type: cell-based; conditions: Vitamin D 10 nM, 48 hours
Method: 7. Inhibition of Osteocalcin Production from Osteoblast Cell Line MG-63
The next day, wells are replaced with fresh media. Cells are treated with Vitamin D (Sigma, Cat. No. D1530) to a final concentration of 10 nM, and with the test compounds in concentrations of 10^−6 M to 10^−9 M, in a total volume of 200 μL per well. Samples are done in duplicates. […] Positive control wells receive Vitamin D only, without compounds, and represent maximum (100%) amount of osteocalcin production. Plates are incubated at 37° C. incubator for 48 hours and supernatants are harvested at the end of incubation. Amounts of osteocalcin in the supernatants are determined by the Glype osteocalcin ELISA kit (Zymed, Cat. No. 99-0054) according to manufacture's protocol. Inhibition of osteocalcin by test compounds is expressed in percentage relative to positive controls. IC50 values of the test compounds are derived by non-lineal curve fitting.

Row | activity in the GR binding assay [1] | SMILES | activity as agonists of the glucocorticoid receptor function in one or more of the above assays [2] | inhibit the vitamin D stimulated production of osteocalcin [3]
1 | potent activity | Cc1cc(C#N)cc2[nH]c(CC(O)(CC(C)(C)c3cc(S(C)(=O)=O)cc4c3OCC4)C(F)(F)F)cc12 (stereo not drawn) [2-[2-Hydroxy-4-(5-methanesulfonyl-2,3-dihydrobenzofuran-7-yl)-4-methyl-2-trifluoromethylpentyl]-4-methyl-1H-indole-6-carbonitrile] | potent agonists | inhibit
2 | potent activity | Cc1ccc(F)cc1C(C)(C)CC(O)(Cc1cc2cnncc2[nH]1)C(F)(F)F (stereo not drawn) [1,1,1-Trifluoro-4-(5-fluoro-2-methylphenyl)-4-methyl-2-(1H-pyrrolo[2,3-d]pyridazin-2-ylmethyl)pentan-2-ol] | potent agonists | inhibit
3 | potent activity | COc1ccc(F)cc1C(C)(C)CC(O)(Cc1cc2c(C)nc(C#N)cc2[nH]1)C(F)(F)F (stereo not drawn) [2-[4-(5-Fluoro-2-methoxyphenyl)-2-hydroxy-4-methyl-2-trifluoromethylpentyl]-4-methyl-1H-pyrrolo[3,2-c]pyridine-6-carbonitrile] | potent agonists | inhibit
